# Tested on: human maximum recommended daily dose, FDA database
# Test: DSSTox (FDAMDD) FDA Maximum (Recommended) Daily Dose Database
# Details: stronger effect = lower value
# Outline: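 MRDD values come from clinical trials with daily oral dosing, usually for 3–12 months, for the average adult, in mg/day converted to mg/kg-bw/day assuming 60 kg. Antineoplastic mg/m2 doses are divided by 37. Activity score maps log10(1/MRDD mmol) onto 1–100.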
# [1] = TherapeuticCategory: antimalarial
# [2] = TherapeuticCategory: anti inflammatory
# [3] = TherapeuticCategory: anthelmintic
# [4] = TherapeuticCategory: antihypertensive
# [5] = TherapeuticCategory: antibacterial
# [6] = TherapeuticCategory: antidepressant
# [7] = TherapeuticCategory: narcotic analgesic
# [8] = TherapeuticCategory: anticholinergic
# [9] = TherapeuticCategory: antihistaminic
# [10] = TherapeuticCategory: antineoplastic
# [11] = TherapeuticCategory: antipsychotic
# [12] = TherapeuticCategory: glucocorticoid
structure (smiles),measurement,setting,value
CCCC(CCC)C(N)=O,maximum recommended daily dose (mmol/kg-bw/day),TherapeuticCategory: anticonvulsant,0.232
CC1(C)N=C(N)N=C(N)N1c1ccc(Cl)cc1,maximum recommended daily dose (mmol/kg-bw/day),[1],0.00132
CC(C)NCC(O)COc1cccc2ccccc12 (configuration not stated),maximum recommended daily dose (mmol/kg-bw/day),"TherapeuticCategory: antihypertensive, antianginal, antiarrhythmic",0.0413
CC(C)NNC(=O)c1ccncc1,maximum recommended daily dose (mmol/kg-bw/day),"TherapeuticCategory: monoamine oxidase inhibitor, antidepressant",0.0139
C[C@]12CC[C@H]3[C@@H](CC[C@@]45O[C@@H]4C(O)=C(C#N)C[C@]35C)[C@@H]1CC[C@@H]2O,maximum recommended daily dose (mmol/kg-bw/day),"TherapeuticCategory: adrenocortical suppressant, treatment of breast cancer",0.0243
Cc1ncc([N+](=O)[O-])n1CCO,maximum recommended daily dose (mmol/kg-bw/day),TherapeuticCategory: antiprotozoal,0.195
CC(C)(C)NCC(O)COc1cccc2c1CCCC2=O (configuration not stated),maximum recommended daily dose (mmol/kg-bw/day),TherapeuticCategory: antiglaucoma,0.000858
CN1c2ccccc2Sc2ccc(CC(=O)O)cc21,maximum recommended daily dose (mmol/kg-bw/day),[2],0.0461
CO[C@H]1C[C@H](O[C@H]2[C@H](C)O[C@@H](O[C@@H]3/C(C)=C/C[C@@H]4C[C@@H](C[C@]5(CC[C@H](C)[C@@H](C(C)C)O5)O4)OC(=O)[C@@H]4C=C(C)[C@@H](O)[C@H]5OC/C(=C\C=C\[C@@H]3C)[C@]54O)C[C@@H]2OC)O[C@@H](C)[C@@H]1O,maximum recommended daily dose (mmol/kg-bw/day),[3],0.000174
O=C1N(Cc2ccccc2)C2C[S+]3CCCC3C2N1Cc1ccccc1 (configuration not stated),maximum recommended daily dose (mmol/kg-bw/day),[4],0.000112
CO[C@@H]1[C@@H](O[C@@H]2O[C@H](C)[C@@H](O[C@H]3C[C@@](C)(O)[C@@H](O)[C@H](C)O3)[C@H](N(C)C)[C@H]2O)[C@@H](CC=O)C[C@@H](C)[C@@H](O[C@@H]2CC[C@H](N(C)C)[C@@H](C)O2)/C=C/C=C/C[C@@H](C)OC(=O)C[C@H]1O,maximum recommended daily dose (mmol/kg-bw/day),[5],0.0791
COCCOc1cnc(NS(=O)(=O)c2ccccc2)nc1,maximum recommended daily dose (mmol/kg-bw/day),TherapeuticCategory: antidiabetic,0.108
NC12CC3CC(CC(C3)C1)C2,maximum recommended daily dose (mmol/kg-bw/day),"TherapeuticCategory: antiviral, antiparkinsonian",0.0441
CN(C)CCC=C1c2ccccc2CCc2ccccc21,maximum recommended daily dose (mmol/kg-bw/day),[6],0.018
CCN(CC)C(=S)SSC(=S)N(CC)CC,maximum recommended daily dose (mmol/kg-bw/day),TherapeuticCategory: alcohol deterrent,0.0281
Cc1cc2nc3c(=O)[nH]c(=O)nc-3n(C[C@H](O)[C@H](O)[C@H](O)CO)c2cc1C,maximum recommended daily dose (mmol/kg-bw/day),TherapeuticCategory: enzyme cofactor vitamin,0.00133
CCCSc1ccc2nc(NC(=O)OC)[nH]c2c1,maximum recommended daily dose (mmol/kg-bw/day),[3],0.0501
C[C@H](N)Cc1ccccc1,maximum recommended daily dose (mmol/kg-bw/day),"TherapeuticCategory: CNS stimulant, anorexic",0.0074
COC12CC[C@@]3(C[C@@H]1[C@](C)(O)C(C)(C)C)[C@H]1Cc4ccc(O)c5c4[C@@]3(CCN1CC1CC1)[C@H]2O5,maximum recommended daily dose (mmol/kg-bw/day),[7],0.00114
CC(=O)N=c1sc(S(N)(=O)=O)nn1C,maximum recommended daily dose (mmol/kg-bw/day),TherapeuticCategory: diuretic,0.0212
C[C@H]1CC[C@@H]2N(C1)C[C@@H]1[C@H]([C@@H](O)[C@H](O)[C@]3(O)[C@H]1C[C@@]14O[C@@]5(O)[C@@H]([C@@H](O)[C@@H](O)[C@@H]31)[C@]4(C)CC[C@@H]5O)[C@]2(C)O,maximum recommended daily dose (mmol/kg-bw/day),TherapeuticCategory: none,4.76e-05
O=C(O)c1ccccc1Nc1cccc(C(F)(F)F)c1,maximum recommended daily dose (mmol/kg-bw/day),"TherapeuticCategory: analgesic, anti inflammatory",0.0356
CN(C)CCCN1c2ccccc2CCc2ccc(Cl)cc21,maximum recommended daily dose (mmol/kg-bw/day),[6],0.0132
O=C(O)c1cc(N=Nc2ccc(S(=O)(=O)Nc3ccccn3)cc2)ccc1O,maximum recommended daily dose (mmol/kg-bw/day),TherapeuticCategory: treatment of ulcerative colitis and Crohn's disease,0.334
C[N+]1([O-])[C@@H]2CC[C@H]1CC(OC(=O)C(CO)c1ccccc1)C2 (some centres not stated),maximum recommended daily dose (mmol/kg-bw/day),[8],0.000164
O=C1CN2CCOC2(c2ccccc2F)c2cc(Cl)ccc2N1CCO (configuration not stated),maximum recommended daily dose (mmol/kg-bw/day),TherapeuticCategory: anxiolytic,0.000531
CN1CCC[C@@H]1CCO[C@](C)(c1ccccc1)c1ccc(Cl)cc1,maximum recommended daily dose (mmol/kg-bw/day),[9],0.00039
O=NN(CCCl)C(=O)NC1CCCCC1,maximum recommended daily dose (mmol/kg-bw/day),[10],0.015
CC(C)=CCN1CC[C@@]2(C)c3cc(O)ccc3C[C@@H]1[C@@H]2C,maximum recommended daily dose (mmol/kg-bw/day),[7],0.00876
CN[C@H]1CC[C@@H](c2ccc(Cl)c(Cl)c2)c2ccccc21,maximum recommended daily dose (mmol/kg-bw/day),[6],0.0109
CN1CCC2=C(C1)C(c1ccccc1)c1ccccc12 (configuration not stated),maximum recommended daily dose (mmol/kg-bw/day),[9],0.00957
CN1CCC(CN2c3ccccc3Sc3ccccc32)C1 (configuration not stated),maximum recommended daily dose (mmol/kg-bw/day),TherapeuticCategory: antipruritic,0.00169
CCN(CC)CCOc1ccc(/C(=C(\Cl)c2ccccc2)c2ccccc2)cc1,maximum recommended daily dose (mmol/kg-bw/day),TherapeuticCategory: gonad stimulating,0.00411
CN1CCN(C2=Nc3cc(Cl)ccc3Nc3ccccc32)CC1,maximum recommended daily dose (mmol/kg-bw/day),[11],0.0459
O=[N+]([O-])c1cc(Cl)cc(-c2cc(Cl)cc([N+](=O)[O-])c2O)c1O,maximum recommended daily dose (mmol/kg-bw/day),TherapeuticCategory: none,0.0058
O=C(O)Cc1ccccc1Nc1c(Cl)cccc1Cl,maximum recommended daily dose (mmol/kg-bw/day),[2],0.0127
COc1cc(NC(C)CCCN)c2ncccc2c1 (configuration not stated),maximum recommended daily dose (mmol/kg-bw/day),[1],0.00289
Cn1c(=O)c2c(ncn2C)n(C)c1=O,maximum recommended daily dose (mmol/kg-bw/day),TherapeuticCategory: CNS stimulant,0.0515
O=C(CCNNC(=O)c1ccncc1)NCc1ccccc1,maximum recommended daily dose (mmol/kg-bw/day),[6],0.0112
CC[N+](CC)(CC)CCOc1cccc(OCC[N+](CC)(CC)CC)c1OCC[N+](CC)(CC)CC,maximum recommended daily dose (mmol/kg-bw/day),TherapeuticCategory: skeletal muscle relaxant,0.00224
N[C@@H](Cc1cc(I)c(Oc2cc(I)c(O)c(I)c2)c(I)c1)C(=O)O,maximum recommended daily dose (mmol/kg-bw/day),TherapeuticCategory: hyperthyroidism,1.07e-05
CC(=O)OCC(=O)[C@@]1(OC(=O)C(C)C)[C@@H](C)C[C@H]2[C@@H]3CCC4=CC(=O)C=C[C@]4(C)[C@@]3(F)[C@@H](O)C[C@@]21C,maximum recommended daily dose (mmol/kg-bw/day),[12],0.000297
Cc1c(OCC(F)(F)F)ccnc1CS(=O)c1nc2ccccc2[nH]1 (configuration not stated),maximum recommended daily dose (mmol/kg-bw/day),"TherapeuticCategory: antiulcerative, anti infective",0.00135
CN[C@@H]1[C@H](O)[C@H](NC)[C@H]2O[C@@]3(O)C(=O)C[C@@H](C)O[C@H]3O[C@@H]2[C@H]1O,maximum recommended daily dose (mmol/kg-bw/day),[5],0.201
COCCc1ccc(OCC(O)CNC(C)C)cc1 (configuration not stated),maximum recommended daily dose (mmol/kg-bw/day),"TherapeuticCategory: antihypertensive, antianginal",0.0249
CN(C)CC/C=C1\c2ccccc2CSc2ccccc21,maximum recommended daily dose (mmol/kg-bw/day),[6],0.00846
CCOC(=O)n1ccn(C)c1=S,maximum recommended daily dose (mmol/kg-bw/day),TherapeuticCategory: thyroid inhibitor,0.00537
CCOC(=O)[C@H](CCc1ccccc1)N[C@@H](C)C(=O)N1[C@H](C(=O)O)C[C@@H]2CCC[C@@H]21,maximum recommended daily dose (mmol/kg-bw/day),[4],0.000799
CCCCCCCC/C=C\CCCCCCCC(=O)O,maximum recommended daily dose (mmol/kg-bw/day),TherapeuticCategory: sclerosing agent,0.242
CC1=C(C(=O)O)N2C(=O)[C@@H](NC(=O)[C@H](N)c3ccccc3)[C@H]2SC1,maximum recommended daily dose (mmol/kg-bw/day),[5],0.192
CCCC(CCC)C(=O)OC1C[C@H]2CC[C@@H](C1)[N+]2(C)C (some centres not stated),maximum recommended daily dose (mmol/kg-bw/day),[8],0.0069
C[N+](C)(C)CCOC(N)=O,maximum recommended daily dose (mmol/kg-bw/day),"TherapeuticCategory: cholinergic, miotic",0.000365
O=C(CCCN1CC=C(n2c(=O)[nH]c3ccccc32)CC1)c1ccc(F)cc1,maximum recommended daily dose (mmol/kg-bw/day),[11],0.000725
COC(=O)[C@H]1[C@H]2C[C@@H]3c4[nH]c5cc(OC)ccc5c4CCN3C[C@H]2C[C@@H](OC(=O)c2cc(OC)c(OC)c(OC)c2)[C@@H]1OC,maximum recommended daily dose (mmol/kg-bw/day),[4],1.64e-05
CCOC(=O)[C@H](CCc1ccccc1)N[C@@H](C)C(=O)N1Cc2ccccc2C[C@H]1C(=O)O,maximum recommended daily dose (mmol/kg-bw/day),"TherapeuticCategory: antihypertensive, ACE inhibitor",0.00303
Clc1ccccc1CN1CCc2sccc2C1,maximum recommended daily dose (mmol/kg-bw/day),TherapeuticCategory: platelet aggregation inhibitor,0.0158
C[C@H]1C[C@H]2[C@@H]3CCC4=CC(=O)C=C[C@]4(C)[C@@]3(F)[C@@H](O)C[C@]2(C)[C@@]1(O)C(=O)CO,maximum recommended daily dose (mmol/kg-bw/day),[12],0.000382
C[C@]12C=CC(=O)C=C1CC[C@@H]1[C@@H]2CC[C@]2(C)OC(=O)CC[C@@H]12,maximum recommended daily dose (mmol/kg-bw/day),[10],0.0139
CCC[C@@H]1C[C@@H](C(=O)N[C@@H]([C@H]2O[C@H](SC)[C@H](O)[C@@H](O)[C@H]2O)[C@H](C)Cl)N(C)C1,maximum recommended daily dose (mmol/kg-bw/day),[5],0.0706
COCc1c(C(C)C)nc(C(C)C)c(/C=C/[C@@H](O)C[C@@H](O)CC(=O)O)c1-c1ccc(F)cc1,maximum recommended daily dose (mmol/kg-bw/day),TherapeuticCategory: antihyperlipoproteinemic,1.09e-05
Nc1ccn([C@@H]2O[C@H](CO)[C@@H](O)C2O)c(=O)n1 (some centres not stated),maximum recommended daily dose (mmol/kg-bw/day),"TherapeuticCategory: antineoplastic, antiviral",0.0111
OCCN1CCN(CCCN2c3ccccc3Sc3ccc(C(F)(F)F)cc32)CC1,maximum recommended daily dose (mmol/kg-bw/day),TherapeuticCategory: antispsychotic,0.000761

# — PubChem BioAssay AID1195 (EPA DSSTox, 2008)
